The values that follow come from US6340692B1, “Injectable anesthetic” (priority 1999, dated 2002).

For one assay, the system named is male chinchilla rabbits. Nature of the assay: Epidural anesthesia in rabbits. The assay is classed as in vivo. Conditions: for effective duration of epidural anesthesia: chinoxicaine 2.0% solution, Lidocaine as comparison. As to the method: A study of epidural anesthesia was conducted on male chinchilla rabbits. The epidural puncture was made in the area of the third and fourth lumbar vertebrae by means of a Tuohi-Peridur needle. A 2.0% solution of chinoxicaine was injected into the epidural area in a volume determined in accordance with the following formula: [formula]

The test system of the next assay is male guinea pigs. In words: Infiltration anesthesia, Beulbring-Wade method. The assay is classed as in vivo. The method, then: The pharmacological activity of chinoxicaine has been evaluated using the characteristics of: i) strength of anesthesia, ii) latent period, and iii) duration of anesthesia. A study of infiltration anesthesia was conducted according to the Beulbring-Wade method on male guinea pigs. The median effective concentration (EC50) was 0.1%. Latent period was about 1.5 minutes. The duration of deep anesthesia was: i) 25 minutes for the 0.1% solution, ii) 140.5 minutes for a 0.25% solution, iii) 310.8 minutes for a 0.5% solution, and iv) 313.8 minutes for a 1.0% solution. On the basis of specific pharmacological activity data, described in greater detail below, chinoxicaine is preferably provided as either a 0.25% or 0.5% solution in 250 mL bottles for use in infiltration anesthesia, and as a 1.0% or 2.0% solution in 5 mL ampoules for conduction and epidural anesthesia. In alternative embodiments, the anesthesia solution includes a 0.9% solution of sodium chloride.

The test system of the next assay is sciatic nerve. Nature of the assay: Sciatic nerve conduction anesthesia, Camaugis-Tekman method. The assay is classed as in vivo, rats. Particulars: for duration of the anesthesia: 0.2 mL. As to the method:
A study of sciatic nerve conduction anesthesia in rats was conducted in accordance with the Camaugis-Tekman method. Prior to injection of the anesthesia, the rat motor activity was evaluated by applying a compression to the animal's feet. Then, a 0.2 mL volume of chinoxicaine solution was injected into the sciatic nerve area of the pronated lower extremity. With the application of a subsequent compression to the its feet, the animal's reaction was evaluated by observing if the animal pulled apart its toes in a ‘fan-shaped’ manner when suspended by its tail. It was determined that both 1.0% and 2.0% concentrations of chinoxicaine solutions produced fast, deep, and prolonged anesthesia. The anesthesia reached fill extent within 2.0±0.3 minutes, with either concentration.

The test system of a further assay is white non-breeding rats. Nature of the assay: Conduction anesthesia, injection under the tail skin. Conditions: 1.0 mL under the tail skin. The assay is classed as in vivo. As to the method: A study of conduction anesthesia was carried out on white non-breeding rats weighing 180 to 220 grams. The anesthetic solution was injected under the tail skin on four sides in a 1.0 mL volume at concentrations ranging from 0.1% to 1.0%. Duration of the anesthetic solution was 120.3±7.1 minutes for the 0.1% concentration, 300.5±15.5 minutes for a 0.25% concentration, 306.0±16.2 minutes for a 0.5% concentration, and 320.0±13.1 minutes for the 1.0% concentration.

Assay [1] is described as follows: Conduction anesthesia, some models (general statements). It counts as in vivo.
The mark [2] stands for this setting: infiltration anesthesia, male guinea pigs.

For the compound `CCN(CC)CC(=O)Nc1c(C)cccc1C` [Lidocaine, reference compound], in the assay with male chinchilla rabbits (epidural), the “effective duration of epidural anesthesia” value is on record as “about 100 minutes”.
On to `CCCn1c(=O)c(C(=O)NCCN(CC)CC)c(O)c2ccccc21.Cl` [chinoxicaine, hydrochloride diethylaminoethylamide 1-propyl-2 oxy-4-hydroxyquinolin-3-carbonic acid], for which the “duration of deep anesthesia” value in the assay on male guinea pigs (0.1% solution) was found to be 25 min; with male guinea pigs (0.25% solution), 140.5 min; in the assay with male guinea pigs (0.5% solution) it was 310.8 min; in the assay with male guinea pigs (1.0% solution) it was 313.8 min. The “effectiveness relative to Lidocaine or Azacaine” value in the assay on male guinea pigs (0.5% solution, long infiltration applications) is on record as at most 2.5 times. For the same compound, the “increase in activity as compared to Lidocaine” value with male guinea pigs (infiltration anesthesia) and in the assay on male chinchilla rabbits (epidural anesthesia) was “two-fold increase” throughout. In addition, the “increase in activity over Trimecaine” value (in the assay on male guinea pigs (infiltration anesthesia); in assay [1] (conduction anesthesia)) was “comparable increase” throughout. Also, the Latent period entry in the assay on male guinea pigs (setting [2]) is reported as “about 1.5 minutes”. Further, in the assay on male guinea pigs (setting [2]), the “median effective concentration (EC50)” value is recorded as 0.1%. In addition, the “duration of the anesthesia” value with sciatic nerve (1.0% concentration) was 138.0 ± 8.9 min; with sciatic nerve (2.0% concentration), 205.0 ± 12.6 min. The “time until anesthesia reached full extent” value in the assay on sciatic nerve (either 1.0% or 2.0% concentration, 0.2 mL into sciatic nerve area) is at most 2.0 ± 0.3 min. For the same compound, the “time from injection to deep and prolonged anesthesia” value in the assay with male chinchilla rabbits (2.0% solution, epidural) was at most 5.0 min. Also, the “effective duration of epidural anesthesia” value in the assay with male chinchilla rabbits (epidural) was “at least 200 minutes”. Moreover, the “duration of long and deep epidural and peridermal anesthesia” value with male chinchilla rabbits (rabbits) is reported as “about 270 minutes”. Further, the “Duration of conduction anesthesia” value in the assay on white non-breeding rats (0.1% concentration) is 120.3 ± 7.1 min; with white non-breeding rats (0.25% concentration), 300.5 ± 15.5 min; in the assay with white non-breeding rats (0.5% concentration), 306.0 ± 16.2 min; in the assay with white non-breeding rats (1.0% concentration), 320.0 ± 13.1 min. For the same compound, in assay [1] (0.5% solution, conduction applications), the “effective duration relative to Trimecaine or Lidocaine” value was “as much as twice”.
